Test results taken from PubChem BioAssay AID1259407 (Chemical Carcinogenesis Research Information System (CCRIS), 2018).
Activity calls are given as the source filed them. How the calls were made is not given here.

Tested on: CCRIS mutagenicity, Ames/micronucleus/aberration tests
Experiment: CCRIS mutagenicity studies
Details: Test System: AMES SALMONELLA TYPHIMURIUM

`C1O[C@@H]1[C@@H]1CO1` was tested, and the mutagenic call (Strain/Indicator: TA98, Metabolic Activation: HAMSTER, LIVER, S-9, AROCLOR 1254, Method: PREINCUBATION) was “inactive; negative”, the mutagenic call (Strain/Indicator: TA98, Metabolic Activation: HAMSTER, LIVER, S-9, AROCLOR 1254, Method: STANDARD PLATE) was “inactive; negative” and the mutagenic call (Strain/Indicator: TA98, Metabolic Activation: HAMSTER, LIVER, S-9, Method: PREINCUBATION) was “inactive; negative”. The mutagenic call (Strain/Indicator: TA98, Metabolic Activation: HAMSTER, LIVER, S-9, Method: STANDARD PLATE) was “inactive; negative”, the mutagenic call (Strain/Indicator: TA98, Metabolic Activation: MOUSE, LIVER, S-9, AROCLOR 1254, Method: PREINCUBATION) was “inactive; negative” and the mutagenic call (Strain/Indicator: TA98, Metabolic Activation: MOUSE, LIVER, S-9, AROCLOR 1254, Method: STANDARD PLATE) was “inactive; negative”. For the same molecule, the mutagenic call (Strain/Indicator: TA98, Metabolic Activation: MOUSE, LIVER, S-9, Method: PREINCUBATION) was “inactive; negative”, the mutagenic call (Strain/Indicator: TA98, Metabolic Activation: MOUSE, LIVER, S-9, Method: STANDARD PLATE) was “inactive; negative” and the mutagenic call (Strain/Indicator: TA98, Metabolic Activation: NONE, Method: PREINCUBATION) was “inactive; negative”. The mutagenic call (Strain/Indicator: TA98, Metabolic Activation: NONE, Method: STANDARD PLATE) was “inactive; negative”, the mutagenic call (Strain/Indicator: TA98, Metabolic Activation: RAT, LIVER, S-9, AROCLOR 1254, Method: PREINCUBATION) was “inactive; negative” and the mutagenic call (Strain/Indicator: TA98, Metabolic Activation: RAT, LIVER, S-9, Method: PREINCUBATION) was “inactive; negative”. The mutagenic call (Strain/Indicator: TA98, Metabolic Activation: RAT, LIVER, S-9, Method: STANDARD PLATE) was “inactive; negative”, the mutagenic call (Strain/Indicator: TA100, Metabolic Activation: HAMSTER, LIVER, S-9, AROCLOR 1254, Method: PREINCUBATION) was “inactive; negative” and the mutagenic call (Strain/Indicator: TA100, Metabolic Activation: HAMSTER, LIVER, S-9, AROCLOR 1254, Method: STANDARD PLATE) was “active; positive”. The mutagenic call (Strain/Indicator: TA100, Metabolic Activation: HAMSTER, LIVER, S-9, Method: PREINCUBATION) was “inactive; negative”, the mutagenic call (Strain/Indicator: TA100, Metabolic Activation: HAMSTER, LIVER, S-9, Method: STANDARD PLATE) was “active; positive” and the mutagenic call (Strain/Indicator: TA100, Metabolic Activation: MOUSE, LIVER, S-9, AROCLOR 1254, Method: PREINCUBATION) was “inactive; negative”. For the same molecule, the mutagenic call (Strain/Indicator: TA100, Metabolic Activation: MOUSE, LIVER, S-9, AROCLOR 1254, Method: STANDARD PLATE) was “active; positive”, the mutagenic call (Strain/Indicator: TA100, Metabolic Activation: MOUSE, LIVER, S-9, Method: PREINCUBATION) was “inactive; negative” and the mutagenic call (Strain/Indicator: TA100, Metabolic Activation: NONE, Method: PREINCUBATION) was “inactive; negative”. For the same molecule, the mutagenic call (Strain/Indicator: TA100, Metabolic Activation: NONE, Method: STANDARD PLATE) was “active; positive”, the mutagenic call (Strain/Indicator: TA100, Metabolic Activation: RAT, LIVER, S-9, AROCLOR 1254, Method: PREINCUBATION) was “inactive; negative” and the mutagenic call (Strain/Indicator: TA100, Metabolic Activation: RAT, LIVER, S-9, Method: PREINCUBATION) was “inactive; negative”. The mutagenic call (Strain/Indicator: TA100, Metabolic Activation: RAT, LIVER, S-9, Method: STANDARD PLATE) was “active; positive”, the mutagenic call (Strain/Indicator: TA1535, Metabolic Activation: HAMSTER, LIVER, S-9, AROCLOR 1254, Method: PREINCUBATION) was “active; positive” and the mutagenic call (Strain/Indicator: TA1535, Metabolic Activation: HAMSTER, LIVER, S-9, AROCLOR 1254, Method: STANDARD PLATE) was “active; positive”. For the same molecule, the mutagenic call (Strain/Indicator: TA1535, Metabolic Activation: HAMSTER, LIVER, S-9, Method: PREINCUBATION) was “active; positive”, the mutagenic call (Strain/Indicator: TA1535, Metabolic Activation: HAMSTER, LIVER, S-9, Method: STANDARD PLATE) was “active; positive” and the mutagenic call (Strain/Indicator: TA1535, Metabolic Activation: MOUSE, LIVER, S-9, AROCLOR 1254, Method: PREINCUBATION) was “active; positive”. The mutagenic call (Strain/Indicator: TA1535, Metabolic Activation: MOUSE, LIVER, S-9, AROCLOR 1254, Method: STANDARD PLATE) was “active; positive”, the mutagenic call (Strain/Indicator: TA1535, Metabolic Activation: MOUSE, LIVER, S-9, Method: PREINCUBATION) was “active; positive” and the mutagenic call (Strain/Indicator: TA1535, Metabolic Activation: MOUSE, LIVER, S-9, Method: STANDARD PLATE) was “active; positive”. The mutagenic call (Strain/Indicator: TA1535, Metabolic Activation: NONE, Method: PREINCUBATION) was “active; positive”, the mutagenic call (Strain/Indicator: TA1535, Metabolic Activation: NONE, Method: STANDARD PLATE) was “active; positive” and the mutagenic call (Strain/Indicator: TA1535, Metabolic Activation: RAT, LIVER, S-9, AROCLOR 1254, Method: PREINCUBATION) was “active; positive”.
